This note sets out measurements from patent publication US4826847A, “Beta-blocking oxindole derivatives” (Boehringer Mannheim GmbH, priority 1984, dated 1989).

The test system of one assay is livers. Put plainly: denitration rate relative to isosorbide-5-mononitrate (Vrel): NO2 freed in perfusate of re-perfused rat livers. To be noted: rat liver perfusion 4 min, 5×10^-5 M/l, NO2 determined in the perfusate; high values = fast denitration.
Assay [1] concerns increase of the frequency through isoprenaline. The assay can be described thus: β-blocking effectiveness: inhibition of isoprenaline-induced increase of the frequency in rabbits. The assay is classed as in vivo, rabbit. To be noted: Oryctolagus cuniculus, iv, read-out: ID 50 fcor (dose which causes an inhibition of 50% of the increase of the frequency through isoprenaline).
[2] abbreviates: rabbits, i.v., isoprenaline 1 mcg/kg i.v.

The structures appear in SMILES notation. Counter-ions that a name gives are not always drawn. Like-named read-outs stand apart in the source and are kept apart here.

As for `CC(C)(CCO[N+](=O)[O-])NCC(O)COc1cccc2c1CC(=O)N2` (centres unmarked) [1 (a), 4-[2-hydroxy-3-(1,1-dimethyl-3-nitratopropylamino)-propoxy]-indolinone hemifumarate], the “Vrel (denitration rate in relation to isosorbide-5-mononitrate)” value (“Vrel” below) in the assay on livers turned out to be 1.23. Besides, the ED50 in assay [1] (setting [2]) amounted to 0.015 mg/kg. Taken in the same sequence, the figures for `CC(CC(C)O[N+](=O)[O-])NCC(O)COc1cccc2c1CC(=O)N2` (centres unmarked) [1 (b), 4-[2-hydroxy-3-(1,3-dimethyl-3-nitratopropylamino)-propoxy]-indolinone fumarate] were 2.02 and 0.0038 mg/kg. The like results for `CC(CCO[N+](=O)[O-])NCC(O)COc1ccc2c(c1)CC(=O)N2` (centres unmarked) [1 (c), 5-[2-hydroxy-3-(1-methyl-3-nitratopropylamino)-propoxy]-indolinone fumarate] were, in that order, 1.77 and 5.08 mg/kg. Regarding `CC(CCO[N+](=O)[O-])NCC(O)COc1ccc2c(c1)NC(=O)C2` (centres unmarked) [1 (d), 6-[2-hydroxy-3-(1-methyl-3-nitratopropylamino)-propoxy]-indolinone fumarate], the “Vrel” value in the assay with livers is recorded as 1.81. On the same count and under the same terms, then `CC(CCO[N+](=O)[O-])NCC(O)COc1cccc2c1NC(=O)C2` (centres unmarked) [1 (e), 7-[2-hydroxy-3-(1-methyl-3-nitratopropylamino)-propoxy]-indolinone fumarate], with 1.79; and `CC(CCO[N+](=O)[O-])NCC(O)COc1ccc2c(c1)C(C(C)C)C(=O)N2` (centres unmarked) [1 (f), 5-[2-hydroxy-3-(1-methyl-3-nitratopropylamino)-propoxy]-3-isopropylindolinone], with 3.01. For `CC(CCO[N+](=O)[O-])NCC(O)COc1ccc2c(c1)C(C(C)c1ccccc1)C(=O)N2` (stereo not drawn) [1 (g), 5-[2-hydroxy-3-(1-methyl-3-nitratopropylamino)-propoxy]-3-(α-methylbenzyl)-indolinone hemifumarate], in the assay on livers, the “Vrel” value is 0.70. Also, in assay [1] (setting [2]), the ED50 amounted to 5.31 mg/kg. The like results for `CC(=C1C(=O)Nc2ccc(OCC(O)CNC(C)CCO[N+](=O)[O-])cc21)c1ccccc1` (stereo not drawn) [1 (i), 5-[2-hydroxy-3-(1-methyl-3-nitratopropylamino)-propoxy]-3-(α-methylbenzylidene)-indolinone hemifumarate] were, in that order, 0.81 and 3.36 mg/kg. `CC(CCO[N+](=O)[O-])NCC(O)COc1cccc2c1C(=Cc1ccc[nH]1)C(=O)N2` (centres unmarked) [2 (a), 4-[2-hydroxy-3-(1-methyl-3-nitratopropylamino)-propoxy]-3-(pyrrol-2-yl)-methylene-indolinone hemifumarate]: in the assay with livers, the “Vrel” value turned out to be 2.40. On to `CC(CCO[N+](=O)[O-])NCC(O)COc1cccc2c1C(=Cc1ccccn1)C(=O)N2` (centres unmarked) [2 (b), 4-[2-hydroxy-3-(1-methyl-3-nitratopropylamino)-propoxy]-3-(pyridin-2-yl)-methylene-indolinone fumarate], for which the “Vrel” value in the assay on livers is recorded as 0.86. For the same compound, in assay [1] (setting [2]), the ED50 came out at 0.172 mg/kg. Taken in the same sequence, the figures for `CC(CCO[N+](=O)[O-])NCC(O)COc1cccc2c1C(=Cc1ccccc1)C(=O)N2` (centres unmarked) [2 (c), 4-[2-hydroxy-3-(1-methyl-3-nitratopropylamino)-propoxy]-3-benzylideneindolinone fumarate] were 0.59 and 1.97 mg/kg. Consider `CC(CCO[N+](=O)[O-])NCC(O)COc1cccc2c1C(=Cc1ccco1)C(=O)N2` (centres unmarked) [4 (a), 4-[2-hydroxy-3-(1-methyl-3-nitratopropylamino)-propoxy]-3-(furan-2-yl)-methylene-indolinone fumarate], for which, in the assay with livers, the “Vrel” value stood at 0.65. The ED50 in assay [1] (setting [2]) came to 0.0096 mg/kg. The like results for `CC(CCO[N+](=O)[O-])NCC(O)COc1cccc2c1C(=Cc1cccs1)C(=O)N2` (centres unmarked) [4 (b), 4-[2-hydroxy-3-(1-methyl-3-nitratopropylamino)-propoxy]-3-(thiophen-2-yl)-methylene-indolinone fumarate] were, in that order, 0.54 and 0.0276 mg/kg.

Turning to `CC(CCO[N+](=O)[O-])NCC(O)COc1cccc2c1C(=Cc1nc[nH]n1)C(=O)N2` (centres unmarked) [4 (d), 4-[2-hydroxy-3-(1-methyl-3-nitratopropylamino)-propoxy]-3-(1,2,4-triazol-3-yl)-methyleneindolinone fumarate], the “Vrel” value in the assay with livers is reported as 1.00. The ED50 in assay [1] (setting [2]) was 0.0096 mg/kg. For `CC(=O)O.CC(CCO[N+](=O)[O-])NCC(O)COc1cccc2c1C(=Cc1cc(=O)[nH]c(=O)[nH]1)C(=O)N2` (centres unmarked) [4 (f), 4-[2-hydroxy-3-(1-methyl-3-nitratopropylamino)-propoxy]-3-(uracil-4-yl)-methylene-indolinone acetate], the “Vrel” value in the assay with livers is on record as 1.80.

Consider `CC(C)(CCO[N+](=O)[O-])NCC(O)COc1cccc2c1C(=Cc1ccn[nH]1)C(=O)N2` (centres unmarked) [4 (g), 4-[2-hydroxy-3-(1,1-dimethyl-3-nitratopropylamino)-propoxy]-3-(pyrazol-5-yl)-methylene-indolinone hemifumarate], for which the “Vrel” value in the assay with livers was found to be 1.59. Also, the ED50 in assay [1] (setting [2]) turned out to be 0.013 mg/kg. Taken in the same sequence, the figures for `CC(CC(C)O[N+](=O)[O-])NCC(O)COc1cccc2c1C(=Cc1ccn[nH]1)C(=O)N2` (centres unmarked) [4 (h), 4-[2-hydroxy-3-(1,3-dimethyl-3-nitratopropylamino)-propoxy]-3-pyrazol-5-yl)-methylene-indolinone fumarate] were 1.39 and 0.039 mg/kg. Regarding `CC(CCO[N+](=O)[O-])NCC(O)COc1cccc2c1C(=Cc1ccc(C#N)cc1)C(=O)N2` (centres unmarked) [4 (j), 4-[2-hydroxy-3-(1-methyl-3-nitratopropylamino)-propoxy]-3-(4-cyanobenzylidene)-indolinone hemifumarate], in the assay on livers, the “Vrel” value is 0.49. The same measure, in the same setting: next, `Cc1cc(C=C2C(=O)Nc3cccc(OCC(O)CNCC(C)(C)CO[N+](=O)[O-])c32)[nH]n1` (centres unmarked) [4 (k), 4-[2-hydroxy-3-(2,2-dimethyl-3-nitratopropylamino)-propoxy]-3-(3-methylpyrazol-5-yl)-methyleneindolinone]: 1.88. With `CC(CCO[N+](=O)[O-])NCC(O)COc1cccc2c1C(C)(C)C(=O)N2` (centres unmarked) [BV 2, 4-[2-hydroxy-3-(1-methyl-3-nitratopropylamino)-propoxy]-3,3-dimethylindolinone fumarate], the “Vrel” value in the assay on livers came out at 2.99. As for `CC(CCO[N+](=O)[O-])NCC(O)COc1cccc2c1C(=Cc1cccc(Cl)c1)C(=O)N2` (centres unmarked) [BV 4, 4-[2-hydroxy-3-(1-methyl-3-nitratopropylamino)-propoxy]-3-(3-chlorobenzylidene)-indolinone fumarate], the “Vrel” value in the assay with livers was 1.22. The ED50 in assay [1] (setting [2]) came out at 1.09 mg/kg. The like results for `Cc1ccccc1C=C1C(=O)Nc2cccc(OCC(O)CNC(C)CCO[N+](=O)[O-])c21` (centres unmarked) [BV 6, 4-[2-hydroxy-3-(1-methyl-3-nitratopropylamino)-propoxy]-3-(2-methylbenzylidene)-indolinon fumarate] were, in that order, 0.74 and above 4 mg/kg.

For `COc1cccc(C=C2C(=O)Nc3cccc(OCC(O)CNC(C)CCO[N+](=O)[O-])c32)c1` (centres unmarked) [BV 9, 4-[2-hydroxy-3-(1-methyl-3-nitratopropylamino)-propoxy]-3-(3-methoxybenzylidene)-indolinone acetate], the “Vrel” value in the assay on livers is listed as 0.60. The ED50 in assay [1] (setting [2]) is 0.765 mg/kg. As to `CC(CCO[N+](=O)[O-])NCC(O)COc1cccc2c1C(=Cc1ccc([N+](=O)[O-])cc1)C(=O)N2` (centres unmarked) [BV 20, 4-[2-hydroxy-3-(1-methyl-3-nitratopropylamino)-propoxy]-3-(4-nitrobenzylidene)-indolinone], the “Vrel” value in the assay with livers was 0.71. The ED50 in assay [1] is 0.113 mg/kg. Take `CC(C)(CNCC(O)COc1cccc2c1CC(=O)N2)CO[N+](=O)[O-]` (centres unmarked) [BV 40, 4-[2-hydroxy-3-(2,2-dimethyl-3-nitratopropylamino)-propoxy]-indolinone hemifumarate]: the “Vrel” value in the assay on livers is reported as 3.51. The ED50 in assay [1] (setting [2]) turned out to be 0.69 mg/kg. Taken in the same sequence, the figures for `Cc1cc(C=C2C(=O)Nc3cccc(OCC(O)CNC(C)CCO[N+](=O)[O-])c32)[nH]n1` (centres unmarked) [BV 43, 4-[2-hydroxy-3-(1-methyl-3-nitratopropylamino)-propoxy]-3-(3-methylpyrazol-5-yl)-methyleneindolinone] were 0.83 and 0.0096 mg/kg.

Regarding `CC(CCO[N+](=O)[O-])NCC(O)COc1cccc2c1CC(=O)N2` (centres unmarked) [Example 1, 4-[2-hydroxy-3-(1-methyl-3-nitratopropylamino)-propoxy]-indolinone benzoate], the “Vrel” value with livers was determined as 1.60. The ED50 in assay [1] (setting [2]) was determined as 0.0066 mg/kg. The like results for `CC(CCO[N+](=O)[O-])NCC(O)COc1cccc2c1C(=Cc1ccn[nH]1)C(=O)N2` (centres unmarked) [Example 2, 4-[2-Hydroxy-3-(1-methyl-3-nitratopropylamino)-propoxy]-3-(pyrazol-5-yl)-methyleneindolinone benzoate] were, in that order, 1.12 and 0.011 mg/kg. On to `O=[N+]([O-])O[C@@H]1CO[C@H]2[C@@H]1OC[C@@H]2O` [Isosorbide-5-mononitrate, isosorbide-5-mononitrate, reference compound], for which the “Vrel” value in the assay with livers is listed as 0.86. In the case of `CC(C)NCC(O)COc1cccc2[nH]ccc12` (centres unmarked) [Pindolol, reference compound], the ED50 in assay [1] (setting [2]) was found to be 0.104 mg/kg.
